{
  "source": "patent US20250099474A1",
  "about": "(priority 2022, published 2025)",
  "key": {"SARS-CoV-2 [1]": {"test_system": "SARS-CoV-2", "experiment": "Cytopathic effect (CPE) suppression effect confirmation test using VeroE6/TMPRSS2 cells", "assay_type": "cell-based"}, "SARS-CoV-2 [2]": {"test_system": "SARS-CoV-2", "experiment": "Phase 2/3 study, Phase 2b Part: score of 12 COVID-19 symptoms per unit time", "assay_type": "in vivo, human", "protocol": "The primary endpoints of Phase 2b Part were the time-weighted average change in the total score of 12 COVID-19 symptoms per unit time from the start of the first administration (Day 1) to 120 hours (Day 6), and the change from baseline in SARS-CoV-2 virus titer on Day 4, in mild/moderate SARS-CoV-2-infected patients, and the clinical improvement and the antiviral effect of the active drug were confirmed.\nThe administration of the active drug is repeated oral administration once a day for 5 days. The 375/125 mg group received 375 mg on Day 1 as a loading dose and 125 mg on Days 2 to 5 as a maintenance dose. The 750/250 mg group received 750 mg on Day 1 as a loading dose and 250 mg on Days 2 to 5 as a maintenance dose.\nThe primary efficacy endpoints of Phase 2b Part for mild/moderate SARS-CoV-2-infected patients were the time-weighted average change in the total score of 12 COVID-19 symptoms per unit time from the start of the first administration (Day 1) to 120 hours (Day 6), and the change from baseline in SARS-CoV-2 virus titer on Day 4. The total score of 12 COVID-19 symptoms is the sum of the scores determined by evaluation in four grades (0: none, 1: mild, 2: moderate, 3: severe) in the subject daily records for each of the 12 COVID-19 symptoms (low energy and tiredness, muscle or body aches, headache, chills or shivering, feeling hot or feverish, stuffy and runny nose, sore throat, cough, shortness of breath (difficulty breathing), nausea, vomiting, diarrhea).\nPairwise comparison was performed between each active drug dose group and the placebo group. […] Pairwise comparison was performed between each active drug dose group and the placebo group.\nThe results of classifying the twelve COVID-19 symptoms shown in the above (2-a) into 5 types (acute symptoms, major clinical symptoms, respiratory symptoms, systemic symptoms, and gastrointestinal symptoms) and analyzing the same (ITT population) are shown in the following table. • Acute symptoms: sore throat, cough, feeling hot and feverish • Major clinical symptoms: stuffy and runny nose, sore throat, cough, chills or shivering, feeling hot or feverish • Respiratory symptoms: stuffy and runny nose, sore throat, cough, shortness of breath (difficulty breathing) • Systemic symptoms: low energy and tiredness, muscle or body aches, headache, chills or shivering, feeling hot or feverish • Gastrointestinal symptoms: nausea, vomiting, diarrhea"}, "[3]": {"conditions": "ITT population, 375/125 mg group"}},
  "data": [
    {"smiles": "Cn1cnc(Cn2c(=O)[nH]/c(=N\\c3cc4cn(C)nc4cc3Cl)n(Cc3cc(F)c(F)cc3F)c2=O)n1", "note": "[(6E)-6-[(6-chloro-2-methyl-2H-indazol-5-yl)imino]-3-[(1-methyl-1H-1,2,4-triazol-3-yl)methyl]-1-[(2,4,5-trifluorophenyl)methyl]-1,3,5-triazinane-2,4-dione]", "values": [
      {"measurement": "EC50", "setting": "SARS-CoV-2 [1]; Severe acute respiratory syndrome coronavirus 2, VeroE6/TMPRSS2, Alpha strain (QHN001)", "result": 310, "unit": "nM"},
      {"measurement": "EC50", "setting": "SARS-CoV-2 [1]; Severe acute respiratory syndrome coronavirus 2, VeroE6/TMPRSS2, Alpha strain (QHN002)", "result": 460, "unit": "nM"},
      {"measurement": "EC50", "setting": "SARS-CoV-2 [1]; Severe acute respiratory syndrome coronavirus 2, VeroE6/TMPRSS2, Alpha strain (QK002)", "result": 330, "unit": "nM"},
      {"measurement": "EC50", "setting": "SARS-CoV-2 [1]; Severe acute respiratory syndrome coronavirus 2, VeroE6/TMPRSS2, Beta strain (TY8-612)", "result": 400, "unit": "nM"},
      {"measurement": "EC50", "setting": "SARS-CoV-2 [1]; Severe acute respiratory syndrome coronavirus 2, VeroE6/TMPRSS2, Delta strain (TY11-927-P1)", "result": 410, "unit": "nM"},
      {"measurement": "EC50", "setting": "SARS-CoV-2 [1]; Severe acute respiratory syndrome coronavirus 2, VeroE6/TMPRSS2, Gamma strain (TY7-501)", "result": 500, "unit": "nM"},
      {"measurement": "EC50", "setting": "SARS-CoV-2 [1]; Severe acute respiratory syndrome coronavirus 2, VeroE6/TMPRSS2, Gamma strain (TY7-503)", "result": 430, "unit": "nM"},
      {"measurement": "EC50", "setting": "SARS-CoV-2 [1]; Severe acute respiratory syndrome coronavirus 2, VeroE6/TMPRSS2, Lambda strain (TY33-456)", "result": 270, "unit": "nM"},
      {"measurement": "EC50", "setting": "SARS-CoV-2 [1]; Severe acute respiratory syndrome coronavirus 2, VeroE6/TMPRSS2, Mu strain (TY26-717)", "result": 430, "unit": "nM"},
      {"measurement": "EC50", "setting": "SARS-CoV-2 [1]; Severe acute respiratory syndrome coronavirus 2, VeroE6/TMPRSS2, Omicron BA.1 strain (TY38-873)", "result": 290, "unit": "nM"},
      {"measurement": "EC50", "setting": "SARS-CoV-2 [1]; Severe acute respiratory syndrome coronavirus 2, VeroE6/TMPRSS2, Omicron BA.1.1 strain (TY38-871)", "result": 360, "unit": "nM"},
      {"measurement": "EC50", "setting": "SARS-CoV-2 [1]; Severe acute respiratory syndrome coronavirus 2, VeroE6/TMPRSS2, Omicron BA.2 strain (TY40-385)", "result": 520, "unit": "nM"},
      {"measurement": "EC50", "setting": "SARS-CoV-2 [1]; Severe acute respiratory syndrome coronavirus 2, VeroE6/TMPRSS2, Omicron BA.2.12.1 strain (TY41-721)", "result": 240, "unit": "nM"},
      {"measurement": "EC50", "setting": "SARS-CoV-2 [1]; Severe acute respiratory syndrome coronavirus 2, VeroE6/TMPRSS2, Omicron BA.2.75 strain (TY41-716)", "result": 300, "unit": "nM"},
      {"measurement": "EC50", "setting": "SARS-CoV-2 [1]; Severe acute respiratory syndrome coronavirus 2, VeroE6/TMPRSS2, Omicron BA.4 strain (TY41-703)", "result": 220, "unit": "nM"},
      {"measurement": "EC50", "setting": "SARS-CoV-2 [1]; Severe acute respiratory syndrome coronavirus 2, VeroE6/TMPRSS2, Omicron BA.5 strain (TY41-702)", "result": 400, "unit": "nM"},
      {"measurement": "EC50", "setting": "SARS-CoV-2 [1]; Severe acute respiratory syndrome coronavirus 2, VeroE6/TMPRSS2, Omicron BQ.1.1 strain (TY41-796)", "result": 480, "unit": "nM"},
      {"measurement": "EC50", "setting": "SARS-CoV-2 [1]; Severe acute respiratory syndrome coronavirus 2, VeroE6/TMPRSS2, Omicron XBB.1 strain (TY41-795)", "result": 330, "unit": "nM"},
      {"measurement": "EC50", "setting": "SARS-CoV-2 [1]; Severe acute respiratory syndrome coronavirus 2, VeroE6/TMPRSS2, Omicron XE strain (TY41-686)", "result": 440, "unit": "nM"},
      {"measurement": "EC50", "setting": "SARS-CoV-2 [1]; Severe acute respiratory syndrome coronavirus 2, VeroE6/TMPRSS2, Theta strain (TY28-444)", "result": 290, "unit": "nM"},
      {"measurement": "Respiratory symptoms sub-total score as compared with the placebo group", "setting": "SARS-CoV-2 [2]; 375/125 mg group (p=0.0153) and 750/250 mg group (p=0.0032)", "result": "a significant improving effect was observed"},
      {"measurement": "Change up to 120 hours in total score of 12 COVID-19 symptoms per unit time as compared with the placebo group", "setting": "SARS-CoV-2 [2]; 375/125 mg group and 750/250 mg group", "result": "a numerical decrease tendency was observed as compared with the placebo group, but a statistically significant difference was not observed"},
      {"measurement": "Change from baseline up to 120 hours in sub-total score per unit time, acute symptoms: Adjusted mean value by covariance analysis (standard error)", "setting": "SARS-CoV-2 [2]; [3]", "result": "−2.36 (0.10)"},
      {"measurement": "Change from baseline up to 120 hours in sub-total score per unit time, acute symptoms: Difference of adjusted mean value from that of placebo group (standard error)", "setting": "SARS-CoV-2 [2]; [3]", "result": "−0.20 (0.12)"},
      {"measurement": "Change from baseline up to 120 hours in sub-total score per unit time, acute symptoms: Maximum value", "setting": "SARS-CoV-2 [2]; [3]", "result": 0.45},
      {"measurement": "Change from baseline up to 120 hours in sub-total score per unit time, acute symptoms: Mean value", "setting": "SARS-CoV-2 [2]; [3]", "result": "−2.52"},
      {"measurement": "Change from baseline up to 120 hours in sub-total score per unit time, acute symptoms: Median value", "setting": "SARS-CoV-2 [2]; [3]", "result": "−2.55"},
      {"measurement": "Change from baseline up to 120 hours in sub-total score per unit time, acute symptoms: Minimum value", "setting": "SARS-CoV-2 [2]; [3]", "result": "−6.19"},
      {"measurement": "Change from baseline up to 120 hours in sub-total score per unit time, gastrointestinal symptoms: Adjusted mean value by covariance analysis (standard error)", "setting": "SARS-CoV-2 [2]; [3]", "result": "−1.27 (0.14)"},
      {"measurement": "Change from baseline up to 120 hours in sub-total score per unit time, gastrointestinal symptoms: Difference of adjusted mean value from that of placebo group (standard error)", "setting": "SARS-CoV-2 [2]; [3]", "result": "0.06 (0.18)"},
      {"measurement": "Change from baseline up to 120 hours in sub-total score per unit time, gastrointestinal symptoms: Maximum value", "setting": "SARS-CoV-2 [2]; [3]", "result": "−0.16"},
      {"measurement": "Change from baseline up to 120 hours in sub-total score per unit time, gastrointestinal symptoms: Mean value", "setting": "SARS-CoV-2 [2]; [3]", "result": "−1.39"},
      {"measurement": "Change from baseline up to 120 hours in sub-total score per unit time, gastrointestinal symptoms: Median value", "setting": "SARS-CoV-2 [2]; [3]", "result": "−0.99"},
      {"measurement": "Change from baseline up to 120 hours in sub-total score per unit time, gastrointestinal symptoms: Minimum value", "setting": "SARS-CoV-2 [2]; [3]", "result": "−5.80"},
      {"measurement": "Change from baseline up to 120 hours in sub-total score per unit time, major clinical symptoms: Adjusted mean value by covariance analysis (standard error)", "setting": "SARS-CoV-2 [2]; [3]", "result": "−3.34 (0.14)"},
      {"measurement": "Change from baseline up to 120 hours in sub-total score per unit time, major clinical symptoms: Difference of adjusted mean value from that of placebo group (standard error)", "setting": "SARS-CoV-2 [2]; [3]", "result": "−0.34 (0.17)"},
      {"measurement": "Change from baseline up to 120 hours in sub-total score per unit time, major clinical symptoms: Maximum value", "setting": "SARS-CoV-2 [2]; [3]", "result": 0.55},
      {"measurement": "Change from baseline up to 120 hours in sub-total score per unit time, major clinical symptoms: Mean value", "setting": "SARS-CoV-2 [2]; [3]", "result": "−3.56"},
      {"measurement": "Change from baseline up to 120 hours in sub-total score per unit time, major clinical symptoms: Median value", "setting": "SARS-CoV-2 [2]; [3]", "result": "−3.33"},
      {"measurement": "Change from baseline up to 120 hours in sub-total score per unit time, major clinical symptoms: Minimum value", "setting": "SARS-CoV-2 [2]; [3]", "result": "−9.76"},
      {"measurement": "Change from baseline up to 120 hours in sub-total score per unit time, respiratory symptoms: Adjusted mean value by covariance analysis (standard error)", "setting": "SARS-CoV-2 [2]; [3]", "result": "−2.09 (0.12)"},
      {"measurement": "Change from baseline up to 120 hours in sub-total score per unit time, respiratory symptoms: Difference of adjusted mean value from that of placebo group (standard error)", "setting": "SARS-CoV-2 [2]; [3]", "result": "−0.37 (0.15)"},
      {"measurement": "Change from baseline up to 120 hours in sub-total score per unit time, respiratory symptoms: Maximum value", "setting": "SARS-CoV-2 [2]; [3]", "result": 1.30},
      {"measurement": "Change from baseline up to 120 hours in sub-total score per unit time, respiratory symptoms: Mean value", "setting": "SARS-CoV-2 [2]; [3]", "result": "−2.28"},
      {"measurement": "Change from baseline up to 120 hours in sub-total score per unit time, respiratory symptoms: Median value", "setting": "SARS-CoV-2 [2]; [3]", "result": "−1.99"},
      {"measurement": "Change from baseline up to 120 hours in sub-total score per unit time, respiratory symptoms: Minimum value", "setting": "SARS-CoV-2 [2]; [3]", "result": "−6.44"},
      {"measurement": "Change from baseline up to 120 hours in sub-total score per unit time, systemic symptoms: Adjusted mean value by covariance analysis (standard error)", "setting": "SARS-CoV-2 [2]; [3]", "result": "−3.31 (0.14)"}
    ]}
  ]
}
